In patent US20250353873A1, “COMPOUNDS AND METHODS FOR MODULATING APOE EXPRESSION” (Ionis Pharmaceuticals, Inc., priority 2024, published 2025):
Strand notation (5' to 3'): a small letter for the sugar, then the base; units joined by * are phosphorothioate-linked, units joined directly phosphodiester-linked; [ ] holds rarer units or linkages, { } end groups; capitals alone tell only the bases. [ms] = mesyl phosphoramidate linkage; e = 2'-O-(2-methoxyethyl) (MOE); [5mC] = 5-methylcytosine; d = 2'-deoxy (DNA)

Experiments:
human APOE RNA [1] = test: Activity in APOE C57BL/6NTac-Apoeem7250 knock-in mice, single ICV bolus, 8 weeks (Example 11); type: in vivo; conditions: single ICV bolus 300 μg, 8 weeks post treatment, normalized to mouse Ppia
Experimental: Modified oligonucleotides described above were tested in the APOE C57BL/6NTac-Apoeem7250 knock-in mouse model described above.
Each mouse received a single ICV bolus of 300 μg of modified oligonucleotide. A group of 3-4 mice received a single ICV bolus with PBS as a negative control.
Eight weeks post treatment, mice were sacrificed and RNA was extracted from cortical brain tissue and spinal cord for quantitative real-time RT-PCR analysis of RNA expression of APOE using human primer probe set RTS3073 (described herein above). APOE RNA levels were normalized to mouse Ppia. Mouse Ppia was amplified using primer probe set m_cyclo24 (described herein above). Results are presented as percent human APOE RNA relative to the amount of human APOE RNA in PBS treated animals, (% control). Each experiment is identified in separate tables below.

human APOE RNA [2] = test: Activity in APOE C57BL/6NTac-Apoeem7250 knock-in mice, single ICV bolus, 16 weeks (Example 12); type: in vivo; conditions: single ICV bolus 300 μg, 16 weeks post treatment, normalized to mouse Ppia
Summary of the method: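 Knock-in mice (3-4 per group) received one ICV bolus of 300 μg oligonucleotide, PBS as control. After 16 weeks, human APOE RNA in cortex and spinal cord measured by RT-qPCR, normalized to mouse Ppia, and reported as % of PBS control.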

| Substance | APOE RNA (% control) Cortex (human APOE RNA [1]) [% control] | APOE RNA (% control) Spinal Cord (human APOE RNA [1]) [% control] | APOE RNA (% control) Cortex (human APOE RNA [2]) [% control] | APOE RNA (% control) Spinal Cord (human APOE RNA [2]) [% control] |
| --- | --- | --- | --- | --- |
| 1681003: 5-10-5 MOE gapmer GGTGAATCTTTATTAAACTA, linkages soooszsssszzszsooss (antisense eG*eGeTeGeA*dA[ms]dT*d[5mC]*dT*dT*dT[ms]dA[ms]dT*dT[ms]dA*eAeAe[5mC]*eT*eA) [compound 1681003] | 90 | 48 | 106 | 61 |
| 1693042: 5-10-5 MOE gapmer CTTGGTGAATCTTTATTAAA, linkages sssosszzzssssssssss (antisense e[5mC]*eT*eT*eGeG*dT*dG[ms]dA[ms]dA[ms]dT*d[5mC]*dT*dT*dT*dA*eT*eT*eA*eA*eA) [compound 1693042] | 77 | 81 | 90 | 65 |
| 1693044: 5-10-5 MOE gapmer CTTGGTGAATCTTTATTAAA, linkages sssoszzzzssssssssss (antisense e[5mC]*eT*eT*eGeG*dT[ms]dG[ms]dA[ms]dA[ms]dT*d[5mC]*dT*dT*dT*dA*eT*eT*eA*eA*eA) [compound 1693044] | 86 | 95 | 98 | 63 |
| 1693082: 6-10-4 MOE gapmer TTGGTGAATCTTTATTAAAC, linkages ssssoozzszssszsssss (eT*eT*eG*eG*eTeGdA[ms]dA[ms]dT*d[5mC][ms]dT*dT*dT*dA[ms]dT*dT*eA*eA*eA*e[5mC]) [compound 1693082] | 113 | 54 | 81 | 72 |
| 1681007: 5-10-5 MOE gapmer GGTGAATCTTTATTAAACTA, linkages zsssszsssszzszssszz (antisense eG[ms]eG*eT*eG*eA*dA[ms]dT*d[5mC]*dT*dT*dT[ms]dA[ms]dT*dT[ms]dA*eA*eA*e[5mC][ms]eT[ms]eA) [compound 1681007] | 71 | 47 | 96 | 67 |
| 1693048: 5-10-5 MOE gapmer CTTGGTGAATCTTTATTAAA, linkages ssssszzzzssssszosss (antisense e[5mC]*eT*eT*eG*eG*dT[ms]dG[ms]dA[ms]dA[ms]dT*d[5mC]*dT*dT*dT*dA[ms]eTeT*eA*eA*eA) [compound 1693048] | 97 | 87 | 105 | 71 |
| 1681021: 5-10-5 MOE gapmer GGTGAATCTTTATTAAACTA, linkages zsssszsssszzssssssz (antisense eG[ms]eG*eT*eG*eA*dA[ms]dT*d[5mC]*dT*dT*dT[ms]dA[ms]dT*dT*dA*eA*eA*e[5mC]*eT[ms]eA) [compound 1681021] | 55 | 68 | 91 | 40 |
| 1693049: 5-10-5 MOE gapmer CTTGGTGAATCTTTATTAAA, linkages ssssszzzzssssszssss (antisense e[5mC]*eT*eT*eG*eG*dT[ms]dG[ms]dA[ms]dA[ms]dT*d[5mC]*dT*dT*dT*dA[ms]eT*eT*eA*eA*eA) [compound 1693049] | 101 | 96 | 93 | 81 |
| 1693050: 5-10-5 MOE gapmer TTGGTGAATCTTTATTAAAC, linkages soosszzzsssssssosss (antisense eT*eTeGeG*eT*dG[ms]dA[ms]dA[ms]dT*d[5mC]*dT*dT*dT*dA*dT*eTeA*eA*eA*e[5mC]) [compound 1693050] | 77 | 63 | 100 | 63 |
| 1681005: 5-10-5 MOE gapmer GGTGAATCTTTATTAAACTA, linkages ssssszsssszzszsssss (antisense eG*eG*eT*eG*eA*dA[ms]dT*d[5mC]*dT*dT*dT[ms]dA[ms]dT*dT[ms]dA*eA*eA*e[5mC]*eT*eA) [compound 1681005] | 101 | 70 | 116 | 68 |
| 1693085: 6-10-4 MOE gapmer TTGGTGAATCTTTATTAAAC, linkages ssssszzzsssszzsssss (eT*eT*eG*eG*eT*eG[ms]dA[ms]dA[ms]dT*d[5mC]*dT*dT*dT[ms]dA[ms]dT*dT*eA*eA*eA*e[5mC]) [compound 1693085] | 86 | 79 | 93 | 71 |
| 1693047: 5-10-5 MOE gapmer CTTGGTGAATCTTTATTAAA, linkages sssoszzzzssssszosss (antisense e[5mC]*eT*eT*eGeG*dT[ms]dG[ms]dA[ms]dA[ms]dT*d[5mC]*dT*dT*dT*dA[ms]eTeT*eA*eA*eA) [compound 1693047] | 78 | 77 | 97 | 71 |
| 1693039: 5-10-5 MOE gapmer CTTGGTGAATCTTTATTAAA, linkages sssosszzzssssssooss (antisense e[5mC]*eT*eT*eGeG*dT*dG[ms]dA[ms]dA[ms]dT*d[5mC]*dT*dT*dT*dA*eTeTeA*eA*eA) [compound 1693039] | 90 | 71 | 127 | 99 |
| 1693084: 6-10-4 MOE gapmer TTGGTGAATCTTTATTAAAC, linkages ssssszzzszsszzsssss (eT*eT*eG*eG*eT*eG[ms]dA[ms]dA[ms]dT*d[5mC][ms]dT*dT*dT[ms]dA[ms]dT*dT*eA*eA*eA*e[5mC]) [compound 1693084] | 72 | 115 | 89 | 86 |
| 1693052: 5-10-5 MOE gapmer TTGGTGAATCTTTATTAAAC, linkages sossszzzsssssssosss (antisense eT*eTeG*eG*eT*dG[ms]dA[ms]dA[ms]dT*d[5mC]*dT*dT*dT*dA*dT*eTeA*eA*eA*e[5mC]) [compound 1693052] | 65 | 79 | 91 | 85 |
| 1681020: 5-10-5 MOE gapmer GGTGAATCTTTATTAAACTA, linkages zsssszsssszzszssssz (antisense eG[ms]eG*eT*eG*eA*dA[ms]dT*d[5mC]*dT*dT*dT[ms]dA[ms]dT*dT[ms]dA*eA*eA*e[5mC]*eT[ms]eA) [compound 1681020] | 63 | 35 | 92 | 59 |
| 1693051: 5-10-5 MOE gapmer TTGGTGAATCTTTATTAAAC, linkages ssosszzzsssssssosss (antisense eT*eT*eGeG*eT*dG[ms]dA[ms]dA[ms]dT*d[5mC]*dT*dT*dT*dA*dT*eTeA*eA*eA*e[5mC]) [compound 1693051] | 114 | 76 | 97 | 79 |
| 1693041: 5-10-5 MOE gapmer CTTGGTGAATCTTTATTAAA, linkages ssossszzzssssssosss (antisense e[5mC]*eT*eTeG*eG*dT*dG[ms]dA[ms]dA[ms]dT*d[5mC]*dT*dT*dT*dA*eTeT*eA*eA*eA) [compound 1693041] | 75 | 74 | 84 | 85 |
| 1652903: 6-10-4 MOE gapmer ACTTGGTGAATCTTTATTAA, linkages sooooossssssssssoss (antisense eA*e[5mC]eTeTeGeGdT*dG*dA*dA*dT*d[5mC]*dT*dT*dT*dA*eTeT*eA*eA) [compound 1652903] | 49 | 19 | 87 | 39 |
| 1693045: 5-10-5 MOE gapmer CTTGGTGAATCTTTATTAAA, linkages ssssozzzzssssssssss (antisense e[5mC]*eT*eT*eG*eGdT[ms]dG[ms]dA[ms]dA[ms]dT*d[5mC]*dT*dT*dT*dA*eT*eT*eA*eA*eA) [compound 1693045] | 88 | 86 | 93 | 60 |
